# In US20110118337A1, “Method of Using Compositions Comprising MIR-192 and/or MIR-215 for the Treatment of Cancer” (Merck Sharp & Dohme Corp., priority 2008, published 2011):
# Test system: HCT116 DICER^ex5 cells
# Test: Gene expression profiling (Agilent 44K microarray) after transfection of miR-192/miR-215 duplex mimetics
# Format: cell-based, human
# Settings: 10 nM, vs mock-transfected
# Procedure: Synthetic duplex mimetics of miR-192 and miR-215 (sequences shown in TABLE 1) or a control target Luciferase siRNA (Luc), shown in TABLE 1, were transfected (10 nM final concentration) into HCT116 DICER^ex5, a human colorectal cancer cell line with hypomorphic DICER function (Cummins, J. M., et al., PNAS 103:3687-3692 (2006)). The transfections were carried out using Lipofectamine RNAiMax (Invitrogen) per the manufacturer's instructions. At 10 and 24 hours post-transfection, total RNA was extracted and gene expression profiling was carried out with the Agilent 44K microarray in comparison to RNA isolated from mock-transfected HCT116DICER^ex5 cells. Microarray analysis was carried out as described in Linsley, P. S., et al., Mol Cell Biol 27:2240-2252 (2007). Gene expression data analysis was done either with the Rosetta Resolver gene expression analysis software (Version 7.1 Rosetta Biosoftware).
substance,measurement,setting,value
"miR-192: Synthetic duplex mimetic of miR-192, guide CUGACCUAUGAAUUGACAGCC (SEQ ID NO:1), passenger SEQ ID NO:7 (sense CUGUCAAUUCAUCGGUCUGAU; listed as RNA, chemistry not given here; listed as Homo sapiens)",BCL2 transcript fold change,10 hr,−1.1 fold change
same,BRCA1 transcript fold change,10 hr,−1.02 fold change
same,CDC7 transcript fold change,10 hr,−1.63 fold change
same,CDC14A transcript fold change,10 hr,−1.02 fold change
same,CDC73 transcript fold change,10 hr,−1.2 fold change
same,CRK transcript fold change,10 hr,−1.42 fold change
same,CTCF transcript fold change,10 hr,−1.59 fold change
same,CUL5 transcript fold change,10 hr,−1.16 fold change
same,DBF4B transcript fold change,10 hr,−1.12 fold change
same,DEK transcript fold change,10 hr,−1.21 fold change
same,DLG5 transcript fold change,10 hr,−1.99 fold change
same,DTL transcript fold change,10 hr,−1.11 fold change
same,EMP1 transcript fold change,10 hr,−1.28 fold change
same,ERCC3 transcript fold change,10 hr,−1.3 fold change
same,EXTL2 transcript fold change,10 hr,−1.2 fold change
same,FGF2 transcript fold change,10 hr,−1.48 fold change
same,HOXA10 transcript fold change,10 hr,−1.7 fold change
same,HRH1 transcript fold change,10 hr,−1.36 fold change
same,KIF14 transcript fold change,10 hr,−1.03 fold change
same,KIF23 transcript fold change,10 hr,−1.01 fold change
same,LMNB2 transcript fold change,10 hr,−1.38 fold change
same,MACF1 transcript fold change,10 hr,−1.3 fold change
same,MAD2L transcript fold change,10 hr,−1.18 fold change
same,MCM3 transcript fold change,10 hr,−1.51 fold change
same,MCM6 transcript fold change,10 hr,−1.01 fold change
same,MCM10 transcript fold change,10 hr,−1.77 fold change
same,MIS12 transcript fold change,10 hr,−1.25 fold change
same,MKI67 transcript fold change,10 hr,−1.08 fold change
same,MPHOSPH1 transcript fold change,10 hr,−1.32 fold change
same,MTSS1 transcript fold change,10 hr,−1.06 fold change
same,NBN transcript fold change,10 hr,−1.49 fold change
same,NCAPH transcript fold change,10 hr,1.01 fold change
same,NEK1 transcript fold change,10 hr,−1.12 fold change
same,NFIB transcript fold change,10 hr,−1.47 fold change
same,NFYA transcript fold change,10 hr,−1.22 fold change
same,NIN transcript fold change,10 hr,−1.1 fold change
same,PAFAH1B1 transcript fold change,10 hr,−1.83 fold change
same,PAPD5 transcript fold change,10 hr,−1.32 fold change
same,PFTK1 transcript fold change,10 hr,1.03 fold change
same,PIM1 transcript fold change,10 hr,−1.2 fold change
same,PLAU transcript fold change,10 hr,−1.74 fold change
same,PLS3 transcript fold change,10 hr,−1.44 fold change
same,POLQ transcript fold change,10 hr,−1.03 fold change
same,POLS transcript fold change,10 hr,−1.23 fold change
same,PPP1CA transcript fold change,10 hr,−1.83 fold change
same,PRPF38A transcript fold change,10 hr,−1.11 fold change
same,RACGAP1 transcript fold change,10 hr,−1.34 fold change
same,RAD1 transcript fold change,10 hr,−1.2 fold change
same,RAD51 transcript fold change,10 hr,1.08 fold change
same,RAP1GAP transcript fold change,10 hr,−1.11 fold change
same,RB1 transcript fold change,10 hr,−1.21 fold change
same,SEPT10 transcript fold change,10 hr,−1.59 fold change
same,SERTAD2 transcript fold change,10 hr,−1.12 fold change
same,SH3BP4 transcript fold change,10 hr,−1.52 fold change
same,SMARCB1 transcript fold change,10 hr,−1.16 fold change
same,TDG transcript fold change,10 hr,−1.47 fold change
same,TDP1 transcript fold change,10 hr,−1.44 fold change
same,TOP1 transcript fold change,10 hr,−1.52 fold change
same,TUBGCP3 transcript fold change,10 hr,−1.26 fold change
same,USP1 transcript fold change,10 hr,−1.13 fold change
same,UVRAG transcript fold change,10 hr,−1.2 fold change
same,BCL2 transcript fold change,24 hr,−1.46 fold change
same,BRCA1 transcript fold change,24 hr,−1.35 fold change
same,CDC7 transcript fold change,24 hr,−2.05 fold change
same,CDC14A transcript fold change,24 hr,−1.16 fold change
same,CDC73 transcript fold change,24 hr,−1.17 fold change
same,CRK transcript fold change,24 hr,−1.44 fold change
same,CTCF transcript fold change,24 hr,−1.78 fold change
same,CUL5 transcript fold change,24 hr,−1.35 fold change
same,DBF4B transcript fold change,24 hr,−1.33 fold change
same,DEK transcript fold change,24 hr,−1.47 fold change
same,DLG5 transcript fold change,24 hr,−2.22 fold change
same,DTL transcript fold change,24 hr,−1.38 fold change
same,EMP1 transcript fold change,24 hr,−1.66 fold change
same,ERCC3 transcript fold change,24 hr,−1.6 fold change
same,EXTL2 transcript fold change,24 hr,−1.5 fold change
same,FGF2 transcript fold change,24 hr,−1.83 fold change
same,HOXA10 transcript fold change,24 hr,−2.3 fold change
same,HRH1 transcript fold change,24 hr,−1.77 fold change
same,KIF14 transcript fold change,24 hr,−1.42 fold change
same,KIF23 transcript fold change,24 hr,−1.34 fold change
same,LMNB2 transcript fold change,24 hr,−1.82 fold change
same,MACF1 transcript fold change,24 hr,−1.64 fold change
same,MAD2L transcript fold change,24 hr,−1.53 fold change
same,MCM3 transcript fold change,24 hr,−1.91 fold change
same,MCM6 transcript fold change,24 hr,−1.33 fold change
same,MCM10 transcript fold change,24 hr,−2.37 fold change
same,MIS12 transcript fold change,24 hr,−1.73 fold change
same,MKI67 transcript fold change,24 hr,−1.4 fold change
same,MPHOSPH1 transcript fold change,24 hr,−1.87 fold change
same,MTSS1 transcript fold change,24 hr,−1.47 fold change
same,NBN transcript fold change,24 hr,−1.27 fold change
same,NCAPH transcript fold change,24 hr,−1.32 fold change
same,NEK1 transcript fold change,24 hr,−1.47 fold change
same,NFIB transcript fold change,24 hr,1.82 fold change
same,NFYA transcript fold change,24 hr,−1.35 fold change
same,NIN transcript fold change,24 hr,1.38 fold change
same,PAFAH1B1 transcript fold change,24 hr,−2.22 fold change
same,PAPD5 transcript fold change,24 hr,−1.44 fold change
same,PFTK1 transcript fold change,24 hr,−1.33 fold change
same,PIM1 transcript fold change,24 hr,−1.73 fold change
same,PLAU transcript fold change,24 hr,−1.95 fold change
same,PLS3 transcript fold change,24 hr,−1.57 fold change
same,POLQ transcript fold change,24 hr,−1.18 fold change
same,POLS transcript fold change,24 hr,−1.39 fold change
same,PPP1CA transcript fold change,24 hr,−2.18 fold change
same,PRPF38A transcript fold change,24 hr,−1.17 fold change
same,RACGAP1 transcript fold change,24 hr,−1.9 fold change
same,RAD1 transcript fold change,24 hr,−1.37 fold change
same,RAD21 transcript fold change,24 hr,−1.36 fold change
same,RAD51 transcript fold change,24 hr,−1.23 fold change
same,RAP1GAP transcript fold change,24 hr,−1.43 fold change
same,RB1 transcript fold change,24 hr,−1.45 fold change
same,SEPT10 transcript fold change,24 hr,−1.98 fold change
same,SERTAD2 transcript fold change,24 hr,−1.31 fold change
same,SH3BP4 transcript fold change,24 hr,−1.9 fold change
same,SMARCB1 transcript fold change,24 hr,−1.3 fold change
same,TDG transcript fold change,24 hr,−1.52 fold change
same,TDP1 transcript fold change,24 hr,−1.66 fold change
same,TOP1 transcript fold change,24 hr,−1.66 fold change
same,TUBGCP3 transcript fold change,24 hr,−1.52 fold change
same,USP1 transcript fold change,24 hr,−1.35 fold change
same,UVRAG transcript fold change,24 hr,−1.38 fold change
